Assay results published in paper PMC11830721 (Frontiers in Pharmacology, 2025).

Experiments:
[1] = system: FLT3 signaling pathway (p-FLT3, p-STAT5, p-ERK) in MV4-11 cells; assay: Western blot of FLT3 signaling pathway in MV4-11 cells; format: cell-based, human; conditions: 4 h, MV4-11, Western blot quantification
Protocol: The MV4-11 cell line was subjected to a 4 h exposure to varying concentrations of the FLIN-4 compound. Subsequent to this treatment, cellular lysis was conducted using RIPA lysis buffer (Sigma-Aldrich, United States) to isolate total cellular proteins. Subsequently, protein concentrations were precisely quantified using the BCA protein assay kit (Beyotime, Nantong, China). Western blot analysis was carried out in accordance with established methodologies ([Zhou et al., 2022]). The primary antibodies utilized in this study included: rabbit anti-FLT3 (21049−1-AP, Proteintech Group), rabbit anti-phospho-FLT3 (ab171975, Abcam), rabbit anti-Stat5 (#94205, CST), rabbit anti-Phospho-Stat5 (#4322, CST), rabbit anti-ERK (16443−1-AP, Proteintech Group), rabbit anti-phospho-ERK (28733−1-AP, Proteintech Group), and a rabbit anti-GAPDH antibody (10494−1-AP, Proteintech Group) served as an endogenous loading control.
To elucidate the impact of FLIN-4 on the FLT3 signaling cascade, we conducted a Western blot analysis in MV4-11 cells to evaluate the relative expression levels of pivotal phosphorylated proteins.

ABL1 = ABL1 (Homo sapiens, UniProt P00519); assay: SelectScreen kinase selectivity assay; format: biochemical; conditions: ten-dose 0.25–128 μM
Protocol: (§1) Following the standardized kinase activity assay protocol as previously reported, we utilized the SelectScreen Kinase Profiling Service (Thermo Fisher Scientific) to determine the kinase selectivity profile of FLIN-4 ([van der Wel et al., 2020]). Through a ten-dose dilution series ranging from 0.25 μM to 128 μM in dose-response experiments, we precisely measured the inhibitory effect of FLIN-4 on the substrate phosphorylation reactions catalyzed by a panel of kinases, and thus ascertained the half-maximal inhibitory concentrations (IC50) for each kinase.

CDK2 = CDK2 (Homo sapiens, UniProt P24941); assay: SelectScreen kinase selectivity assay; format: biochemical; conditions: ten-dose 0.25–128 μM
Protocol: as §1

DDR1 = DDR1 (Homo sapiens, UniProt Q08345); assay: SelectScreen kinase selectivity assay; format: biochemical; conditions: ten-dose 0.25–128 μM
Protocol: as §1

EPHA3 = EPHA3 (Homo sapiens, UniProt P29320); assay: SelectScreen kinase selectivity assay; format: biochemical; conditions: ten-dose 0.25–128 μM
Protocol: as §1

EPHA4 = EPHA4 (Homo sapiens, UniProt P54764); assay: SelectScreen kinase selectivity assay; format: biochemical; conditions: ten-dose 0.25–128 μM
Protocol: as §1

EPHA6 = EPHA6 (Homo sapiens, UniProt Q9UF33); assay: SelectScreen kinase selectivity assay; format: biochemical; conditions: ten-dose 0.25–128 μM
Protocol: as §1

EPHA8 = EPHA8 (Homo sapiens, UniProt P29322); assay: SelectScreen kinase selectivity assay; format: biochemical; conditions: ten-dose 0.25–128 μM
Protocol: as §1

EPHB2 = EPHB2 (Homo sapiens, UniProt P29323); assay: SelectScreen kinase selectivity assay; format: biochemical; conditions: ten-dose 0.25–128 μM
Protocol: as §1

FGFR3 = FGFR3 (Homo sapiens, UniProt P22607); assay: SelectScreen kinase selectivity assay; format: biochemical; conditions: ten-dose 0.25–128 μM
Protocol: as §1

FYN = FYN (Homo sapiens, UniProt P06241); assay: SelectScreen kinase selectivity assay; format: biochemical; conditions: ten-dose 0.25–128 μM
Sequence of FYN (P06241 whole entry): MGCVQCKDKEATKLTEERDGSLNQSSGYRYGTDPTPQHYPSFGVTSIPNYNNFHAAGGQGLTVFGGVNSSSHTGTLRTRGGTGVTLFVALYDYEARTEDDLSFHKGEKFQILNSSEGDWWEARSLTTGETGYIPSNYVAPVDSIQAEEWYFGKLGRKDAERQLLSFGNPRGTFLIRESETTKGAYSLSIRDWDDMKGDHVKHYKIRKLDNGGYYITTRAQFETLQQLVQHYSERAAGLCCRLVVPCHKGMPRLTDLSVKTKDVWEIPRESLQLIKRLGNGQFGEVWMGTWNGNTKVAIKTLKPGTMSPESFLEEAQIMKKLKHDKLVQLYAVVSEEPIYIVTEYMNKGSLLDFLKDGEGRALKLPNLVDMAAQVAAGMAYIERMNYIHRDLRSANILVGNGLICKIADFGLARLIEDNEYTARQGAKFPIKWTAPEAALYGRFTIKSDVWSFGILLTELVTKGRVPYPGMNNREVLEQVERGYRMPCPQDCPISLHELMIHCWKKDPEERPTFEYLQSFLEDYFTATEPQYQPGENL
Protocol: as §1

HCK = HCK (Homo sapiens, UniProt P08631); assay: SelectScreen kinase selectivity assay; format: biochemical; conditions: ten-dose 0.25–128 μM
Protocol: as §1

JAK1 = JAK1 (Homo sapiens, UniProt P23458); assay: SelectScreen kinase selectivity assay; format: biochemical; conditions: ten-dose 0.25–128 μM
Protocol: as §1

JAK2 = JAK2 (Homo sapiens, UniProt O60674); assay: SelectScreen kinase selectivity assay; format: biochemical; conditions: ten-dose 0.25–128 μM
Sequence of JAK2 (O60674 whole entry): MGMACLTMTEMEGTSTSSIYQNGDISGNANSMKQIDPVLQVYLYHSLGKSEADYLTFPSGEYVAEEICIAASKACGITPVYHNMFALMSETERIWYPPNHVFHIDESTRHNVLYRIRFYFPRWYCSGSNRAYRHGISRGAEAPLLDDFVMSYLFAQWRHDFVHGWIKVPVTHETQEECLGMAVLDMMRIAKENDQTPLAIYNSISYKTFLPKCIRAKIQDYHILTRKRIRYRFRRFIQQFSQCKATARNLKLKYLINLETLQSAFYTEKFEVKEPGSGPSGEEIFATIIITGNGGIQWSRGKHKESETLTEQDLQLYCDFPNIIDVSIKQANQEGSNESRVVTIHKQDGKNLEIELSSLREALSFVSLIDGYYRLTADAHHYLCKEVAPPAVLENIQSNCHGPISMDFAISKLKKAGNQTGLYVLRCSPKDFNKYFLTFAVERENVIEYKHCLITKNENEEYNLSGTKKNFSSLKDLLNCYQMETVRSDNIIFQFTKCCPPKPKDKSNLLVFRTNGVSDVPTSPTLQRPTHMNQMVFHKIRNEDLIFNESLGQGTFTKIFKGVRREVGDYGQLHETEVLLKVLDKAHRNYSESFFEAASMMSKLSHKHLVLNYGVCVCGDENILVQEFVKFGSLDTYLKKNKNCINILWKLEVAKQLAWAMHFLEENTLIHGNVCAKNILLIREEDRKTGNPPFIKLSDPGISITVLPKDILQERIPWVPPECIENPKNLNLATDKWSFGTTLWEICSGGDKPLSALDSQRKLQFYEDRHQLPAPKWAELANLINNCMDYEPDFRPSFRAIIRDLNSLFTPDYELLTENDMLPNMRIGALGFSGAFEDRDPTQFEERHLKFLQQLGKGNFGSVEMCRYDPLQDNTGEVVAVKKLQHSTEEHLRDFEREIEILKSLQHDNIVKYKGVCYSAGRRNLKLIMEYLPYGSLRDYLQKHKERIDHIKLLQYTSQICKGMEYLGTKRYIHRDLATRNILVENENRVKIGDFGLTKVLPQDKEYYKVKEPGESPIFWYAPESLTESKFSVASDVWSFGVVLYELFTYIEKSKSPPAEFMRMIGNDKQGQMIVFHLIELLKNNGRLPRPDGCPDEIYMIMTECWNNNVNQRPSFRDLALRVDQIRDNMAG
Protocol: as §1

JAK3 = JAK3 (Homo sapiens, UniProt P52333); assay: SelectScreen kinase selectivity assay; format: biochemical; conditions: ten-dose 0.25–128 μM
Sequence of JAK3 (P52333 whole entry): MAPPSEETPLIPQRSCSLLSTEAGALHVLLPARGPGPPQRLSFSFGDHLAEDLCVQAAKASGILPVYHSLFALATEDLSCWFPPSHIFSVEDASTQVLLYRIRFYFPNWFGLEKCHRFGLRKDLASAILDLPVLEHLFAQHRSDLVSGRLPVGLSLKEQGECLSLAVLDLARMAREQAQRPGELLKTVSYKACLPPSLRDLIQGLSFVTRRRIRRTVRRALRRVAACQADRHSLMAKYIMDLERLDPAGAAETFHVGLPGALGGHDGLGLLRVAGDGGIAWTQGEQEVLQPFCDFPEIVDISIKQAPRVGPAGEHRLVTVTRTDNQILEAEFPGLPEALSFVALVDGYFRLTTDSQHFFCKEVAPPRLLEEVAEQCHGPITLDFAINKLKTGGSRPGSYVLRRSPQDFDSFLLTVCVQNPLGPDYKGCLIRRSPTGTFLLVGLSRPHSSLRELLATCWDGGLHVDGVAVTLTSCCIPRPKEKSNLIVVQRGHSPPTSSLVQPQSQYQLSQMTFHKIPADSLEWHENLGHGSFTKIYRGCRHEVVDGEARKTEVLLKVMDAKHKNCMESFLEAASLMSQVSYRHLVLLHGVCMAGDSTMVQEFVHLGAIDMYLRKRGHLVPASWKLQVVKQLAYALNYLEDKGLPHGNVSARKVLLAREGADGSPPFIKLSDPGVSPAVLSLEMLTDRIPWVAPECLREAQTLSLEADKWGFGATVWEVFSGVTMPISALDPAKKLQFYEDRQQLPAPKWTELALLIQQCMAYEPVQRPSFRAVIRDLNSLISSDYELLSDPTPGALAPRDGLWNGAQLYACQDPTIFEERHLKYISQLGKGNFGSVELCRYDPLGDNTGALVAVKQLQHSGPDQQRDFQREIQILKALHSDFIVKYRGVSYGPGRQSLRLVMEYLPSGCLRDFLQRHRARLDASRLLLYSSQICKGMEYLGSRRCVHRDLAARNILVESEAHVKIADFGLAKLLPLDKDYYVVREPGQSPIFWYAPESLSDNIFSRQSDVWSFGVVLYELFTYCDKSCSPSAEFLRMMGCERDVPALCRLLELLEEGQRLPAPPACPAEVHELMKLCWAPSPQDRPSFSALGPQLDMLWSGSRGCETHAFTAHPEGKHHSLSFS
Protocol: as §1

KIT = KIT (Homo sapiens, UniProt P10721); assay: SelectScreen kinase selectivity assay; format: biochemical; conditions: ten-dose 0.25–128 μM
Sequence of KIT (P10721 26-976): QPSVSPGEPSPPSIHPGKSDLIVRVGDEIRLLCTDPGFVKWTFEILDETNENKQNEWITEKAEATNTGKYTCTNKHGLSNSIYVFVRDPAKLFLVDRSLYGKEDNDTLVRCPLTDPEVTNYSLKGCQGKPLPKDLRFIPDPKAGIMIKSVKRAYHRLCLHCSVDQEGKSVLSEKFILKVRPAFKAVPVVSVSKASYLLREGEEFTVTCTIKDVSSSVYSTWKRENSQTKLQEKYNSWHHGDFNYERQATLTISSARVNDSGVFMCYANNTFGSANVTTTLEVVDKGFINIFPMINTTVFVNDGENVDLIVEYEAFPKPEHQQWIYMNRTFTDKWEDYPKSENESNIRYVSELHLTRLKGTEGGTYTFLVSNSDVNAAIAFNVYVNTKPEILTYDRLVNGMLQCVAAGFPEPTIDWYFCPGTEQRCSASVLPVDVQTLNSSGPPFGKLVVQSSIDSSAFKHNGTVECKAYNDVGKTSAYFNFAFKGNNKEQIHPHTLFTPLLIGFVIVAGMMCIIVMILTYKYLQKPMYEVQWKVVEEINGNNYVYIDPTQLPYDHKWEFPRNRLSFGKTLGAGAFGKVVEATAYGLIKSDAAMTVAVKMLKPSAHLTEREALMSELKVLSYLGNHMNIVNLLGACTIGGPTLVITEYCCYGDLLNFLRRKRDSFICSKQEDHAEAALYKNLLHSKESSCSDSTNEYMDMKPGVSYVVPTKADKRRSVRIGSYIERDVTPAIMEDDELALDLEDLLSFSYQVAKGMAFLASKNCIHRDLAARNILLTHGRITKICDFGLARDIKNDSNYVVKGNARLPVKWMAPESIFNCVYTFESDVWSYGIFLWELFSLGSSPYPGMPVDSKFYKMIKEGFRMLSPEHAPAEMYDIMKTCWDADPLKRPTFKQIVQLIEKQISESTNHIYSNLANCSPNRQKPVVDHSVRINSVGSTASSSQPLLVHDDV
Protocol: as §1

MST1R = MST1R (Homo sapiens, UniProt Q04912); assay: SelectScreen kinase selectivity assay; format: biochemical; conditions: ten-dose 0.25–128 μM
Sequence of MST1R (Q04912 25-1400): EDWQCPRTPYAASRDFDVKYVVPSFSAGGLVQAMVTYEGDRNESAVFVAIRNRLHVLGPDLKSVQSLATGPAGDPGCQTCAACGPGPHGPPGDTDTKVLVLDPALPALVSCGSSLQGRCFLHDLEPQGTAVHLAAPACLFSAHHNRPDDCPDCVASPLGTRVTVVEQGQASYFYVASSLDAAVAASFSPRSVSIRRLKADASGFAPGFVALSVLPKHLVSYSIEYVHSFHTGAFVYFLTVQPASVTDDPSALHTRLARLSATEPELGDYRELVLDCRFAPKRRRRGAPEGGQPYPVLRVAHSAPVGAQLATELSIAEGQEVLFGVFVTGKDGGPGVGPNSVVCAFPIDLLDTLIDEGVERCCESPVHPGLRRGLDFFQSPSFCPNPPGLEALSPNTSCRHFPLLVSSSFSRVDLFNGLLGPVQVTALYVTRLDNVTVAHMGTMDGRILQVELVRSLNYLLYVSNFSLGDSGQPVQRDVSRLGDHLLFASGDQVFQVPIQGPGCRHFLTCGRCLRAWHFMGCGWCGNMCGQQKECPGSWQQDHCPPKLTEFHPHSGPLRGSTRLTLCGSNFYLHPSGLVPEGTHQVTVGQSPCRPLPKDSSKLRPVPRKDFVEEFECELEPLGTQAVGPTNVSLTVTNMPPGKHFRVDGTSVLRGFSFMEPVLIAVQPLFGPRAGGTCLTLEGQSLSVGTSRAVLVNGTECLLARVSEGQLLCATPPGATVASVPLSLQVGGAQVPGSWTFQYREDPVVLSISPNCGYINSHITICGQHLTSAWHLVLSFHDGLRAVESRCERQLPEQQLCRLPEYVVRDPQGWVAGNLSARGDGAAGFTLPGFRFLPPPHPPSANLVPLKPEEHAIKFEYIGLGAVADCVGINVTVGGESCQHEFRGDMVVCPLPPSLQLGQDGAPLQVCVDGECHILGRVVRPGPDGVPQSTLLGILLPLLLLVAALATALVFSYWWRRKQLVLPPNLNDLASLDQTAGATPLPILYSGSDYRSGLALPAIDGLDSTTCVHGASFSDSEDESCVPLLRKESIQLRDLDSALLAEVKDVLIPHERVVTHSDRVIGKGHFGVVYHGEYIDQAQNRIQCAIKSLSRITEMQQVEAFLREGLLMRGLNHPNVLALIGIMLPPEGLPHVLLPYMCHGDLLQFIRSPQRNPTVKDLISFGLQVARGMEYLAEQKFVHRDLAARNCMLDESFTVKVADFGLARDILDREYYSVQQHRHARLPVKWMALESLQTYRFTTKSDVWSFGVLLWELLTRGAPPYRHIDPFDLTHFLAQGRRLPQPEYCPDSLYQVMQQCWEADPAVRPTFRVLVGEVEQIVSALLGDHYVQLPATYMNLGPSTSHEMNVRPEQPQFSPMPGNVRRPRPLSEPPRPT
Protocol: as §1

MUSK = MUSK (Homo sapiens, UniProt O15146); assay: SelectScreen kinase selectivity assay; format: biochemical; conditions: ten-dose 0.25–128 μM
Protocol: as §1

PDGFRA = PDGFRA (Homo sapiens, UniProt P16234); assay: SelectScreen kinase selectivity assay; format: biochemical; conditions: ten-dose 0.25–128 μM
Protocol: as §1

PTK2 = PTK2 (Homo sapiens, UniProt Q05397); assay: SelectScreen kinase selectivity assay; format: biochemical; conditions: ten-dose 0.25–128 μM
Protocol: as §1

TYRO3 = TYRO3 (Homo sapiens, UniProt Q06418); assay: SelectScreen kinase selectivity assay; format: biochemical; conditions: ten-dose 0.25–128 μM
Protocol: as §1

`CCc1nc(C(N)=O)c(Nc2ccc(N3CCC(Nc4ccccc4)CC3)c(OC)c2)nc1NC1CCOC(C(O)CO)C1` (centres unmarked) [FLIN-4] was tested, and the p-ERK/ERK expression level ([1]; 3 nM) was “significant diminution”, the p-FLT3/FLT3 expression level ([1]; 3 nM) was “significant diminution” and the p-STAT5/STAT5 expression level ([1]; 3 nM) was “significant diminution”. For the same compound, the p-ERK/ERK expression level ([1]; 30 nM) was “exacerbated decrease”, the p-FLT3/FLT3 expression level ([1]; 30 nM) was “exacerbated decrease” and the p-STAT5/STAT5 expression level ([1]; 30 nM) was “exacerbated decrease”. For the same compound, the IC50 (ABL1) was over 10 µM, the IC50 (CDK2) was over 10 µM and the IC50 (DDR1) was over 10 µM. The IC50 (EPHA3) was over 10 µM, the IC50 (EPHA4) was over 10 µM and the IC50 (EPHA6) was over 10 µM. The IC50 (EPHA8) was over 10 µM, the IC50 (EPHB2) was over 10 µM and the IC50 (FGFR3) was over 10 µM. The IC50 (FYN) was over 10 µM, the IC50 (HCK) was over 10 µM and the IC50 (JAK1) was over 10 µM. The IC50 (JAK2) was over 10 µM, the IC50 (JAK3) was over 10 µM and the IC50 (KIT) was over 10 µM. It also gave an IC50 (MST1R) of over 10 µM, an IC50 (MUSK) of over 10 µM and an IC50 (PDGFRA) of over 10 µM. For the same compound, the IC50 (PTK2) was over 10 µM and the IC50 (TYRO3) was over 10 µM.
